Reference: patent publication US9029337B2, “Modulation of factor 7 expression” (Isis Pharmaceuticals, Inc., priority 2007, dated 2015)
Strand notation (5' to 3'): a small letter for the sugar, then the base; units joined by * are phosphorothioate-linked, units joined directly phosphodiester-linked; [ ] holds rarer units or linkages, { } end groups; capitals alone tell only the bases. e = 2'-O-(2-methoxyethyl) (MOE); [5mC] = 5-methylcytosine; d = 2'-deoxy (DNA)

Columns and labels:
Assay type in all cases: cell-based
human Factor 7 mRNA [1] = assay: Antisense inhibition of human Factor 7 mRNA in HepB3 cells, 50 nM antisense oligonucleotide, lipofectin; conditions: for % Inhibition: lipofectin, 50 nM antisense oligonucleotide, approximately 24 hours, Factor 7 mRNA by real-time RT-PCR (RTS 2927), relative to untreated control; for % Inhibition of human Factor 7 mRNA levels: gapmers targeted to nucleobases 4868 to 4899 of SEQ ID NO: 1, Table 8
How it was run: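 After transfection of wells containing 4,000 cells, treatment ran for approximately 24 h. RIBOGREEN®-measured total RNA served for normalisation, and inhibition was calculated as a percentage of untreated control.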

human Factor 7 mRNA [2] = assay: Dose-dependent antisense inhibition of human Factor 7 in HepB3 cells, lipofectin; conditions: for percent inhibition of Factor 7: approximately 16 hours; for percent inhibition of Factor 7 mRNA, relative to untreated control cells: HepB3 cells, approx. 16 hours (Table 14)
Description: Cells were plated at a density of 4,000 cells per well and treated with lipofectin reagent with 3.125 nM, 6.25 nM, 12.5 nM, 25 nM, 50 nM, and 100 nM concentrations of antisense oligonucleotide, as indicated in Table 3. After a treatment period of approximately 16 hours, RNA was isolated from the cells and Factor 7 mRNA levels were measured by real-time RT-PCR, as described herein. Human Factor 7 primer probe set RTS 2927 (forward sequence: […], incorporated herein as SEQ ID NO: 164; reverse sequence: […], incorporated herein as SEQ ID NO: 165; probe sequence: TGGGTGGTCTCCGCGGCCX, incorporated herein as SEQ ID NO: 166) was used to measure mRNA levels. Factor 7 mRNA levels were adjusted according to total RNA content as measured by RIBOGREEN®. Results are presented as percent inhibition of Factor 7, relative to untreated control cells.
Cells were plated at a density of 4,000 cells per well and transfected using lipofectin reagent with 6.25 nM, 12.5 nM, 25.0 nM, 50.0 nM, and 100.0 nM concentrations of antisense oligonucleotide, as indicated in Table 7. After a treatment period of approximately 16 hours, RNA was isolated from the cells and Factor 7 mRNA levels were measured by real-time RT-PCR, as described herein. Human Factor 7 primer probe set RTS 2927 was used to measure mRNA levels. Factor 7 mRNA levels were adjusted according to total RNA content as measured by RIBOGREEN®. Results are presented as percent inhibition of Factor 7, relative to untreated control cells.
Cells were plated at a density of 4,000 cells per well and transfected using lipofectin reagent with 3.125 nM, 6.25 nM, 12.5 nM, 25 nM, 50 nM, and 100 nM concentrations of antisense oligonucleotide, as specified in Table 14. After a treatment period of approximately 16 hours, RNA was isolated from the cells and Factor 7 mRNA levels were measured by quantitative real-time PCR. Human Factor 7 primer probe set RTS 2927 was used to measure mRNA levels. Factor 7 mRNA levels were adjusted according to total RNA content, as measured by RIBOGREEN®. Results are presented as percent inhibition of Factor 7, relative to untreated control cells.

human Factor 7 mRNA [3] = assay: Antisense inhibition of human Factor 7 with short (14-mer) oligonucleotides in HepB3 cells, electroporation 1,000 nM; conditions: electroporation, 1,000 nM antisense oligonucleotide, approximately 24 hours, Factor 7 mRNA relative to untreated control cells
From the text: Short antisense oligonucleotides (shortmers) were designed to target a Factor 7 nucleic acid. The shortmers in Table 17 were designed as 2-10-2 MOE gapmers. The gapmers are 14 nucleotides in length, wherein the central gap segment is comprised of 10 2′-deoxynucleotides and is flanked on both sides (in the 5′ and 3′ directions) by wings comprising 2 nucleotides each. Each nucleotide in the 5′ wing segment and each nucleotide in the 3′ wing segment has a 2′-MOE modification. The internucleoside linkages throughout each gapmer are phosphorothioate (P═S) linkages. All cytidine residues throughout each gapmer are 5-methylcytidines.
Shortmers were evaluated for their ability to reduce human Factor 7 mRNA in HepB3 cells and compared with one 5-10-5 chimeric oligonucleotide from Table 16, ISIS 407939. HepB3 cells at a density of 20,000 cells per well in a 96-well plate were transfected using electroporation with 1,000 nM of antisense oligonucleotide. After a treatment period of approximately 24 hours, RNA was isolated from the cells and Factor 7 mRNA levels were measured by real-time RT-PCR, as described herein. Factor 7 mRNA levels were adjusted according to total RNA content as measured by RIBOGREEN®. Results are presented in Table 17 as percent inhibition of Factor 7 mRNA, relative to untreated control cells. ISIS 407939 is the first oligonucleotide in Table 17 to which the shortmers were compared, and is marked by an asterisk (*).

416455 (antisense e[5mC]*eG*e[5mC]*e[5mC]*eG*dG*d[5mC]*dT*d[5mC]*dT*dG*d[5mC]*dT*d[5mC]*dA*eT*e[5mC]*e[5mC]*e[5mC]*e[5mC]) [compound 416455]
% Inhibition (human Factor 7 mRNA [1]): 72% | % Inhibition (human Factor 7 mRNA levels) (human Factor 7 mRNA [1]; oligonucleotides targeted to nucleobases 13760 to 13789 of SEQ ID NO: 1 (Table 10)): 51% | percent inhibition of Factor 7 (human Factor 7 mRNA [2]; Table 7, 6.25 nM): 28% | percent inhibition of Factor 7 (human Factor 7 mRNA [2]; Table 7, 12.5 nM): 44% | percent inhibition of Factor 7 (human Factor 7 mRNA [2]; Table 7, 25.0 nM): 64% | percent inhibition of Factor 7 (human Factor 7 mRNA [2]; Table 7, 50.0 nM): 78% | percent inhibition of Factor 7 (human Factor 7 mRNA [2]; Table 7, 100.0 nM): 87%

416472 (antisense e[5mC]*eA*eG*e[5mC]*e[5mC]*dT*dT*dG*dG*d[5mC]*dT*dT*dT*d[5mC]*dT*e[5mC]*eT*e[5mC]*e[5mC]*eA) [compound 416472]
% Inhibition (human Factor 7 mRNA [1]): 76% | percent inhibition of Factor 7 (human Factor 7 mRNA [2]; Table 7, 6.25 nM): 16% | percent inhibition of Factor 7 (human Factor 7 mRNA [2]; Table 7, 12.5 nM): 44% | percent inhibition of Factor 7 (human Factor 7 mRNA [2]; Table 7, 25.0 nM): 64% | percent inhibition of Factor 7 (human Factor 7 mRNA [2]; Table 7, 50.0 nM): 80% | percent inhibition of Factor 7 (human Factor 7 mRNA [2]; Table 7, 100.0 nM): 88%

416477 (antisense e[5mC]*eA*eG*e[5mC]*e[5mC]*dT*dG*dA*dG*dG*d[5mC]*d[5mC]*dA*dG*d[5mC]*eA*eG*eA*eT*e[5mC]) [compound 416477]
% Inhibition (human Factor 7 mRNA [1]): 74% | % Inhibition (human Factor 7 mRNA levels) (human Factor 7 mRNA [1]; oligonucleotides targeted to nucleobases 14707 to 14732 of SEQ ID NO: 1 (Table 11)): 71% | percent inhibition of Factor 7 (human Factor 7 mRNA [2]; Table 7, 6.25 nM): 21% | percent inhibition of Factor 7 (human Factor 7 mRNA [2]; Table 7, 12.5 nM): 46% | percent inhibition of Factor 7 (human Factor 7 mRNA [2]; Table 7, 25.0 nM): 64% | percent inhibition of Factor 7 (human Factor 7 mRNA [2]; Table 7, 50.0 nM): 78% | percent inhibition of Factor 7 (human Factor 7 mRNA [2]; Table 7, 100.0 nM): 87%

416507 (antisense eG*eG*eT*eT*eA*d[5mC]*dT*dG*dA*dG*d[5mC]*dG*d[5mC]*dG*dG*eA*eA*eG*eA*eA) [compound 416507]
% Inhibition (human Factor 7 mRNA [1]): 73% | percent inhibition of Factor 7 (human Factor 7 mRNA [2]; Table 7, 6.25 nM): 30% | percent inhibition of Factor 7 (human Factor 7 mRNA [2]; Table 7, 12.5 nM): 53% | percent inhibition of Factor 7 (human Factor 7 mRNA [2]; Table 7, 25.0 nM): 70% | percent inhibition of Factor 7 (human Factor 7 mRNA [2]; Table 7, 50.0 nM): 77% | percent inhibition of Factor 7 (human Factor 7 mRNA [2]; Table 7, 100.0 nM): 72%

416508 (antisense e[5mC]*eG*eA*eG*eT*dT*d[5mC]*dT*dG*d[5mC]*dA*dG*dG*dA*dG*e[5mC]*eG*eG*e[5mC]*e[5mC]) [compound 416508]
% Inhibition of human Factor 7 mRNA levels (human Factor 7 mRNA [1]): 67% | % Inhibition (human Factor 7 mRNA [1]): 67% | percent inhibition of Factor 7 (human Factor 7 mRNA [2]; Table 7, 6.25 nM): 42% | percent inhibition of Factor 7 (human Factor 7 mRNA [2]; Table 7, 12.5 nM): 51% | percent inhibition of Factor 7 (human Factor 7 mRNA [2]; Table 7, 25.0 nM): 71% | percent inhibition of Factor 7 (human Factor 7 mRNA [2]; Table 7, 50.0 nM): 79% | percent inhibition of Factor 7 (human Factor 7 mRNA [2]; Table 7, 100.0 nM): 89%

416549 (antisense eG*eA*e[5mC]*eA*eA*dT*dG*dG*dT*d[5mC]*dA*dG*dG*dG*d[5mC]*eT*eG*eG*eT*eT) [compound 416549]
% Inhibition (human Factor 7 mRNA [1]): 68% | % Inhibition (human Factor 7 mRNA levels) (human Factor 7 mRNA [1]; oligonucleotides targeted to nucleobases 11830 to 11869 of SEQ ID NO: 1 (Table 9)): 69% | percent inhibition of Factor 7 (human Factor 7 mRNA [2]; Table 7, 6.25 nM): 38% | percent inhibition of Factor 7 (human Factor 7 mRNA [2]; Table 7, 12.5 nM): 44% | percent inhibition of Factor 7 (human Factor 7 mRNA [2]; Table 7, 25.0 nM): 63% | percent inhibition of Factor 7 (human Factor 7 mRNA [2]; Table 7, 50.0 nM): 73% | percent inhibition of Factor 7 (human Factor 7 mRNA [2]; Table 7, 100.0 nM): 78%

422294 (antisense eG*eA*dG*dT*dT*d[5mC]*dT*dG*d[5mC]*dA*dG*dG*dA*dG*d[5mC]*eG*eG*e[5mC]*e[5mC]*eT) [compound 422294]
% Inhibition of human Factor 7 mRNA levels (human Factor 7 mRNA [1]): 78% | percent inhibition of Factor 7 mRNA, relative to untreated control cells (human Factor 7 mRNA [2]; 3.125 nM): 9% | percent inhibition of Factor 7 mRNA, relative to untreated control cells (human Factor 7 mRNA [2]; 12.5 nM): 32% | percent inhibition of Factor 7 mRNA, relative to untreated control cells (human Factor 7 mRNA [2]; 25 nM): 61% | percent inhibition of Factor 7 mRNA, relative to untreated control cells (human Factor 7 mRNA [2]; 50 nM): 77% | percent inhibition of Factor 7 mRNA, relative to untreated control cells (human Factor 7 mRNA [2]; 100 nM): 84% | percent inhibition of Factor 7 mRNA, relative to untreated control cells (human Factor 7 mRNA [2]): 21%

435478 (antisense eG*eA*dG*dG*d[5mC]*dA*d[5mC]*dA*d[5mC]*dT*dG*dG*eT*e[5mC]) [compound 435478]
% Inhibition (human Factor 7 mRNA [3]): 43%

435479 (antisense e[5mC]*eA*d[5mC]*dT*d[5mC]*d[5mC]*d[5mC]*d[5mC]*dT*dT*dT*dG*eG*eG) [compound 435479]
% Inhibition (human Factor 7 mRNA [3]): 9%

435480 (antisense eG*eG*dT*d[5mC]*dA*dT*d[5mC]*dA*dG*d[5mC]*d[5mC]*dG*eG*eG) [compound 435480]
% Inhibition (human Factor 7 mRNA [3]): 53%

435481 (antisense eG*eG*dG*dT*d[5mC]*dA*dT*d[5mC]*dA*dG*d[5mC]*d[5mC]*eG*eG) [compound 435481]
% Inhibition (human Factor 7 mRNA [3]): 50%

435482 (antisense eT*eG*dG*dG*dT*d[5mC]*dA*dT*d[5mC]*dA*dG*d[5mC]*e[5mC]*eG) [compound 435482]
% Inhibition (human Factor 7 mRNA [3]): 62%

435483 (antisense e[5mC]*eT*dG*dG*dG*dT*d[5mC]*dA*dT*d[5mC]*dA*dG*e[5mC]*e[5mC]) [compound 435483]
% Inhibition (human Factor 7 mRNA [3]): 82%

435484 (antisense e[5mC]*e[5mC]*dT*dG*dG*dG*dT*d[5mC]*dA*dT*d[5mC]*dA*eG*e[5mC]) [compound 435484]
% Inhibition (human Factor 7 mRNA [3]): 45%

435485 (antisense eT*e[5mC]*d[5mC]*dT*dG*dG*dG*dT*d[5mC]*dA*dT*d[5mC]*eA*eG) [compound 435485]
% Inhibition (human Factor 7 mRNA [3]): 34%

435486 (antisense eG*eT*d[5mC]*d[5mC]*dT*dG*dG*dG*dT*d[5mC]*dA*dT*e[5mC]*eA) [compound 435486]
% Inhibition (human Factor 7 mRNA [3]): 64%

435487 (antisense eA*eG*dT*d[5mC]*d[5mC]*dT*dG*dG*dG*dT*d[5mC]*dA*eT*e[5mC]) [compound 435487]
% Inhibition (human Factor 7 mRNA [3]): 36%

435488 (antisense e[5mC]*eA*dG*dT*d[5mC]*d[5mC]*dT*dG*dG*dG*dT*d[5mC]*eA*eT) [compound 435488]
% Inhibition (human Factor 7 mRNA [3]): 17%

435489 (antisense e[5mC]*eT*dG*dG*dT*dG*dT*dA*d[5mC]*dA*d[5mC]*d[5mC]*e[5mC]*e[5mC]) [compound 435489]
% Inhibition (human Factor 7 mRNA [3]): 72%

435490 (antisense e[5mC]*e[5mC]*dT*dG*dG*dT*dG*dT*dA*d[5mC]*dA*d[5mC]*e[5mC]*e[5mC]) [compound 435490]
% Inhibition (human Factor 7 mRNA [3]): 49%

435491 (antisense e[5mC]*e[5mC]*d[5mC]*dT*dG*dG*dT*dG*dT*dA*d[5mC]*dA*e[5mC]*e[5mC]) [compound 435491]
% Inhibition (human Factor 7 mRNA [3]): 61%

435492 (antisense eA*e[5mC]*d[5mC]*d[5mC]*dT*dG*dG*dT*dG*dT*dA*d[5mC]*eA*e[5mC]) [compound 435492]
% Inhibition (human Factor 7 mRNA [3]): 45%
